Experimental data reported in PubChem BioAssay (NCI).
“And” between values parts separate entries of the source, which are not always exact repeats. Identical values can stand only once.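 Cultured in 96-well plates, cells were exposed to test compound for 48 hours across five concentrations. GI50 is the concentration that inhibits growth by half. TGI denotes the concentration required for complete inhibition of growth.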

What was measured:
Assay in all cases: NCI-60 cell line screen, 48 h
[1] = system: A549 NSCLC
[2] = system: CCRF-CEM leukemia
[3] = system: HCT-116 colon
[4] = system: HOP-92 NSCLC
[5] = system: K-562 leukemia
[6] = system: KM12 colon
[7] = system: NCI-H226 lung
[8] = system: RXF 393 renal
[9] = system: UACC-257 melanoma
[10] = system: UACC-62 melanoma

| Compound | GI50 [1] | TGI [1] | GI50 [2] | TGI [2] | GI50 [3] | TGI [3] | GI50 [4] | GI50 [5] | TGI [5] | GI50 [6] | TGI [6] | GI50 [7] | TGI [8] | GI50 [9] | TGI [9] | GI50 [10] | TGI [10] | TGI [4] | TGI [7] | GI50 [8] |
| --- | --- | --- | --- | --- | --- | --- | --- | --- | --- | --- | --- | --- | --- | --- | --- | --- | --- | --- | --- | --- |
| Cc1c(N)nc(C(CC(N)=O)NCC(N)C(N)=O)nc1C(=O)NC(C(=O)NC(C)C(O)C(C)C(=O)NC(C(=O)NCCc1nc(-c2nc(C(=O)NCCCNCCCCN)cs2)cs1)C(C)O)C(OC1OC(CO)C(O)C(O)C1OC1OC(CO)C(O)C(OC(N)=O)C1O)c1cnc[nH]1 (configuration not stated) | 2.69 µg/mL and 1.06 µg/mL | > 10 µM | 3.15 µg/mL | > 10 µM | 0.288 µg/mL and 1.04 µg/mL | 26.8 µg/mL and > 10 µM | 3.38 µg/mL | 29.2 µg/mL | > 10 µM | 40 µg/mL | > 10 µM | 9.65 µg/mL and 3.45 µg/mL | 3.45 µM | 86.1 µg/mL | > 10 µM | 0.605 µg/mL and 0.744 µg/mL | 25.6 µg/mL and > 10 µM | – | – | – |
| CC(C)N(Cc1ccccc1)S(=O)(=O)c1n[nH]c(C(C)(C)C)n1 | – | > 100 µM | – | > 100 µM | – | > 100 µM | – | – | > 100 µM | – | > 100 µM | – | > 100 µM | – | > 100 µM | – | > 100 µM | > 100 µM | > 100 µM | – |
| COc1cc(N=Nc2cccc(S(N)(=O)=O)c2)c2ccccc2c1N | – | 33 µM | – | 38.6 µM | – | 29.2 µM | – | – | 37.7 µM | – | 26.4 µM | – | 33.6 µM | – | 3.37 µM | – | 4.19 µM | > 58 µM | 39.7 µM | – |
| COc1cc2c3c(c1OC)Oc1ccc(cc1)CC1c4c(cc(OC)c(OC)c4Oc4ccc(cc4)CC3N(C)CC2)CCN1C (configuration not stated) | – | 70.4 µM | – | 55.1 µM | – | 27.2 µM | – | – | 35.5 µM | – | > 100 µM | – | 40.3 µM | – | 28.6 µM | – | 34.9 µM | > 100 µM | 55.5 µM | – |
| C[C@H]1CC2=CC(=O)CC[C@]2(C)[C@H]2CC[C@@]3(C)[C@@H](CC[C@]3(C)O)[C@H]12 | 31.9 µM | > 100 µM | 12.1 µM | 53.7 µM | 31.2 µM | > 95.2 µM | 8.66 µM | 24.7 µM | > 88.1 µM | 27.5 µM | > 75.4 µM | 30 µM | 76.9 µM | 35.4 µM | > 94.1 µM | 22.2 µM | > 67 µM | 44.3 µM | > 100 µM | 24.8 µM |
| COc1cc(/C=C/c2cc(/C=C/c3ccc(O)c(OC)c3)[nH]c(=O)n2)ccc1O | 5.2 µM | 27.6 µM | 2.1 µM | 6.22 µM | 2.48 µM | 12.4 µM | 2.28 µM | 3.66 µM | 35.8 µM | 3.44 µM | 14.2 µM | 3.48 µM | 4.93 µM | 3.36 µM | 17.9 µM | 3.39 µM | 43.2 µM | 9.24 µM | 22.5 µM | 2.24 µM |
| COc1cc(CC2CC(c3ccc4c(c3)OCO4)OC2=O)cc(OC)c1OC (configuration not stated) | – | > 100 µM | – | > 100 µM | – | > 100 µM | – | – | > 100 µM | – | > 100 µM | – | > 100 µM | – | > 100 µM | – | > 100 µM | > 100 µM | > 100 µM | – |
| S=C(Nc1ccccc1)N1CCn2c1nsc2=Nc1ccccc1 | > 100 µM | > 100 µM | 31.4 µM | > 100 µM | 34.6 µM | > 100 µM | 92.7 µM | 31.3 µM | > 100 µM | > 100 µM | > 100 µM | 61.6 µM | > 100 µM | > 100 µM | > 100 µM | 45.9 µM | > 100 µM | > 100 µM | > 100 µM | > 100 µM |
